For three molecules, Activity and Ratio results are on record in ChEMBL document CHEMBL1671774, “An efficient synthesis of the precursor of AI-2, the signalling molecule for inter-species quorum sensing” (Bioorg Med Chem, 2011).

Assay [1] has as its system Escherichia coli. Put plainly: Induction of LsrB-dependent quorum sensing in Escherichia coli KX1446 assessed as expression of Lsr system at 40 uM by beta-galactosidase reporter assay.
The test system of assay [2] is Escherichia coli. Nature of the assay: Ratio of compound activity over DPD activity for induction of LsrB-dependent quorum sensing in Escherichia coli KX1446.
In assay [3] the target is Autoinducer 2-binding periplasmic protein LuxP (Vibrio harveyi) (UniProt P54300). Nature of the assay: Induction of LuxP-dependent quorum sensing in Vibrio harveyi MM32 assessed as induction of bioluminescence intensity after 4 hrs.
Assay [4] shares this target. Nature of the assay: Binding affinity to LuxP in Vibrio harveyi MM32 by FRET method.

Activity calls are given as the source filed them. The rule behind the calls is not given here.

Sequence of Autoinducer 2-binding periplasmic protein LuxP (Vibrio harveyi) (P54300 whole entry): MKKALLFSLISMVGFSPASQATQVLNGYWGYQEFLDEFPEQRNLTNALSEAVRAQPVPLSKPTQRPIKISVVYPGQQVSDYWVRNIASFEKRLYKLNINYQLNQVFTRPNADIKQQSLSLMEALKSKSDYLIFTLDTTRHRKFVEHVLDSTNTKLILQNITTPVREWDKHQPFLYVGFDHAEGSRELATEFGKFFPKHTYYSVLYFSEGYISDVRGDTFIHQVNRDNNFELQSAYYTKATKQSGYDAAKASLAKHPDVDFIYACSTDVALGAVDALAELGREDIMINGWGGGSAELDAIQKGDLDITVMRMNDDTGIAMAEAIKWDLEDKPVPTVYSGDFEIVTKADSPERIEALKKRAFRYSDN

Consider `C[C@@]1(O)OC[C@H](O)C1(O)O`, for which the result in the assay with Escherichia coli [1] was Active. Besides, the Ratio in the assay with Escherichia coli [2] was 6.
With `C[C@]12OC[C@H](O)[C@@]1(O)O[B-](O)(O)O2`, the outcome in assay [3] was Active.
With `CC(=O)C(=O)[C@@H](O)CO`, the result in assay [3] and in assay [4] was Active. Moreover, the result in the assay with Escherichia coli [1] was inactive.
